Test results published in US20180117150A1, “Combination Therapies for CD38-Positive Hematological Malignances with ANTI-CD38 Antibodies and Cyclophosphamide” (Janssen Biotech, Inc., priority 2016, published 2018).
Like-named read-outs stand apart in the source and are kept apart here.

Legend:
MM1S cells [1] = assay: Daratumumab-mediated MM1S tumor cell clearance in co-culture with conditioned THP-1 macrophages (ADCP assay); format: cell-based; conditions: for daratumumab-mediated tumor cell killing by macrophages (% specific MM1S cell clearance): THP-1 conditioned 48 hours with media of treated MM1S, 1 μg/ml daratumumab, E:T 2:1, 18 hours, FIG. 4
Description: FIG. 4 illustrates the level of MM1S tumor cell clearance in co-culture of MM1S cells and THP-1 macrophages. Prior to initiation of co-cultures, THP-1 cells were cultured 48 hours in conditioned media generated from untreated MM1S tumor cells or MM1S cells treated with lenalidomide (FIG. 4A), bortezomib (FIG. 4B) or cyclophosphamide (CTX) alone or in combination with bortezomib or lenalidomide (FIG. 4C). MM1S cells were stained with calcein and incubated with daratumumab or IgG1 isotype control ([…]) and co-culture with THP-1 cells at a 2:1 effector to target ratio for 18 hours. Cell frequency was determined using the Accuri C6 (Right). The % specific cell clearance was calculated by the following formula:
100−100*(The frequency of calcein stained MM1S cells in the presence of 1 μg/ml daratumumab/
The frequency of calcein stained MM1S cells in the presence of Isotype control).
Co-cultures of MM1S and THP-1 cells were incubated in the presence of cytochalasin to assess if daratumumab mediated MM1S killing by ADCP. […] FIG. 5 illustrates the level of daratumumab-mediated tumor cell clearance in co-cultures of MM1S and THP-1 cells. Prior to initiation of co-cultures, THP-1 cells were cultured 48 hours in conditioned media generated from untreated MM1S tumor cells or MM1S cells treated with lenalidomide (FIG. 5A) or cyclophosphamide alone or in combination with lenalidomide or bortezomib (FIG. 5B) in the absence or presence of 1 μg/ml cytochalasin D. The % specific cell clearance was calculated by the following formula: […]

[2] = test system: CD47 expression on multiple myeloma cells (MM1S); assay: Flow cytometry of cell surface CD47 expression on treated MM1S cells; conditions: 24 hours after treatment, CTX 2.5, 5, 10 μM, CTX 10 μM with Bort 1 nM or Len 1 μM, FIG. 2C
Description: (§1) Cells: The multiple myeloma cell line, MM1S, was sub-cultured in RPMI 1640 media supplemented with 10% FBS and 50 IU/ml penicillin and 50 μg/ml Streptomycin. […] THP-1 cells were sub-cultured in RPMI 1640 media supplemented with 10% FBS and 50 IU/ml Penicillin and 50 μg/ml streptomycin. Cells were plated at a cell density of 2×10^5 cells/ml for experiments. […] Fresh media was added and the cells were further incubated for 24 hours after collecting the conditioned media. […] All antibodies were purchased from BD Pharmingen™ unless otherwise stated. Cells were stained with anti-CD38 (APC-conjugated) and anti-CD47 (FITC-conjugated, eBiosciences) antibodies and the level of expression of CD38 and CD47 was assessed. Sytox advanced reagents were used to assess cell death. Cells were analysed by flow cytometry. Sytox positive cells were excluded from analysis. The mean fluorescent intensity was calculated by expressing the fluorescent intensity of each sample relative to the cell size. […] FcγRI and FcγRlla/b expression was assessed by flow cytometry 48 hours later using anti-FcγRI (APC-conjugated) and anti- FcγRIIa/b (PE-conjugated) antibodies. The mean fluorescent intensity was calculated by expressing the fluorescent intensity of each sample relative to the cell size and subtracting the values for the isotype control/unstained samples.

[3] = test system: CD64 (FcγRI) expression on THP-1 macrophages; assay: CD64 (FcγRI) expression on THP-1 macrophages incubated in conditioned media from treated MM1S cells; conditions: THP-1 cells, 48 hours in conditioned media from treated MM1S cells; FIG. 3A
Description: as §1

[4] = test system: CD47 on CD45-CD19-CD138+ plasma cells; conditions: 24 hour treatment vs baseline
Description: Ethics: Pre-screened newly diagnosed MM patients were enrolled into the sub-clinical study by informed consent according to predetermined protocols and standard operating procedures for sample draw and included extraction of relevant details from medical records.
Samples Isolation: Isolation of mononuclear cells (MC) from PB and BM aspirates were performed by layering 3mL EDTA-anti-coagulated sample over 3mL endotoxin-free Ficoll Plaque density-gradient medium (GE Healthcare, Little Chalfont, United Kingdom) in 15-mL Falcon tubes (Sarstedt, North Rhine-Westphalia, Niimbrecht, Germany), and centrifuged at 420 relative centrifugal force (RCF) for 22 minutes at 4° C. without braking. The “buffy coat” layer was isolated and washed twice with Fluorescence-activated cell sorting (FACS buffer) [2% foetal calf serum (Lonza, Basel, Switzerland), PBS and 0.05% NaN3 (Sigma-Aldrich, St. Louis, Mo., USA)]. […] Cells were counted using a haemocytometer and 5×10^5 cells per sample were stained for phenotypic characterisation by flow cytometry
Characterisation Studies: Plasma cells: Cell surface expression of CD38, CD47, CD319 (SLAMF7), B-cell maturation antigen (BCMA), MIC A/B, Programmed death-ligand (PDL) 1, PDL2, CD54, CD11a and CD48 were analysed on CD45-CD19-CD138+ Plasma cells by flow cytometry. […]

[5] = test system: CD38 expression on multiple myeloma cells (MM1S); assay: Flow cytometry of cell surface CD38 expression on treated MM1S cells; conditions: 48 hours after treatment, CTX 2.5, 5, 10 μM, CTX 10 μM with Bort 1 nM or Len 1 μM, FIG. 1
Description: as §1

MM1S cells [6] = format: cell-based, human; conditions: for proportion of tumour cell clearance accounted for by ADCP: ± 1 μg/ml cytochalasin D, n=1
Description: Antibody Dependant cellular phagocytosis (ADCP): To determine the number of macrophages per sample, 50 μl of 5×10^6 cells/mL concentration of MC isolated from PB and BM were diluted using 150 μl FACS buffer. Based on forward and side scatter profiles, the total number of macrophages were determined by timed acquisition events per unit volume using an Accuri™ C6. […] Cells were washed, incubated with mouse anti-human CD45-APC (BD Biosciences, San Jose, CA) and mouse anti-human CD14-PerCP-Cy5.5 (Miltenyi Biotech, Cologne, Germany) for 15 mins, then washed and re-suspended in 200 μl FACS buffer for sample acquisition. Macrophage and MM1S cells were gated using CFSE+ and CD45+CD14+ cells gating. Cell frequency was determined using the BD Canto IITM flow cytometer. Antibody-dependent phagocytosis was assessed and quanti?ed as follows: Phagocytosis was quanti?ed by frequency of remaining target cells (CFSE positive) with and without Ab treatment or isotype control. […] ADCP mediated clearance was calculated using the following formula: 100-100*(Proportion of live Dara-treated MM1S cells in untreated macrophage co-culture/ Proportion of live Dara-treated MM1S cells in CytoD conditioned macrophage co-culture).

[7] = test system: CD32 (FcγRIIa/b) expression on THP-1 macrophages; assay: CD32 (FcγRIIa/b) expression on THP-1 macrophages incubated in conditioned media from treated MM1S cells; conditions: THP-1 cells, 48 hours in conditioned media from treated MM1S cells; FIG. 3B
Description: as §1

Molecule: CC(C)C[C@H](NC(=O)[C@H](Cc1ccccc1)NC(=O)c1cnccn1)B(O)O [bortezomib]
- daratumumab-mediated tumor cell killing by macrophages (% specific MM1S cell clearance) (MM1S cells [1]): potentiated

Molecule: O=P1(N(CCCl)CCCl)NCCCO1 (centres unmarked) [cyclophosphamide]
- mean fluorescence intensity (MFI) of cell surface CD47 expression [2]: reduced
- MFI of cell surface CD64 (FcγRI) expression [3]: induced
- CD47 surface expression (MFI) on plasma cells, bone marrow ([4]; BM, n=3, P=0.0555, FIG. 6B): decreased
- CD47 surface expression (MFI) on plasma cells, peripheral blood ([4]; PB, n=3, cyclophosphamide 150-300 mg/m^2, FIG. 6A): decreased
- mean fluorescence intensity (MFI) of cell surface CD38 expression [5]: induced
- proportion of tumour cell clearance accounted for by ADCP (MM1S cells [6]; BM macrophages 24 hours after treatment with cyclophosphamide, FIG. 8C): > 25%
- tumour cytotoxicity by macrophages in co-culture of PB or BM-derived macrophages and multiple myeloma cells (MM1S cells [6]; patient macrophages 24 hours after treatment vs prior to treatment): augmented
- daratumumab-mediated tumor cell killing by macrophages (% specific MM1S cell clearance) (MM1S cells [1]): potentiated
- daratumumab-mediated tumor cell killing by macrophages (% specific MM1S cell clearance) (MM1S cells [1]; listed as Cyclophosphamide): augmented
- mechanism of the potentiation of anti-myeloma activity of daratumumab (MM1S cells [1]; concluded from cytochalasin D inhibition, FIG. 5): dependent on macrophage mediated ADCP
- MFI of cell surface CD32 (FcγRIIa/b) expression [7]: induced

Molecule: daratumumab
- proportion of tumour cell clearance accounted for by ADCP (MM1S cells [6]; BM macrophages prior to treatment, FIG. 8C): > 15%
- difference between Dara and Isotype within the ADCP assay (MM1S cells [6]; patient had received Daratumumab 16 mg/kg infusion, FIG. 8C): minimal difference

Molecule: C=C1[C@@H](C)[C@H]2[C@H](Cc3ccccc3)NC(=O)[C@]23[C@H](OC(C)=O)/C=C/[C@@](C)(O)C(=O)[C@@H](C)C/C=C/[C@H]3[C@@H]1O [Cytochalasin D]
- daratumumab-mediated tumor cell clearance in the presence of cytochalasin D (MM1S cells [1]; 1 μg/ml cytochalasin D in MM1S/THP-1 co-cultures, FIG. 5): reduced

Molecule: Nc1cccc2c1CN(C1CCC(=O)NC1=O)C2=O (centres unmarked) [lenalidomide]
- daratumumab-mediated tumor cell killing by macrophages (% specific MM1S cell clearance) (MM1S cells [1]): potentiated
- daratumumab-mediated tumor cell killing by macrophages (% specific MM1S cell clearance) (MM1S cells [1]; listed as lenalodomide): augmented
